Assay results: patent publication US10681909B2, “Herbicidal triazoles” (FMC Corporation, priority 2014, dated 2020)

Columns and labels:
lambsquarters = assay: Test C postemergence; type: in vivo, Chenopodium album
Outline: (§1)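 Plants are treated postemergence at the 1- to 4-leaf stage (2 to 18 cm), grown in sphagnum peat/vermiculite medium; preemergence treatment is applied to seed planted in loam soil with sand. Both use test chemical in a non-phytotoxic solvent mixture with surfactant.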

corn = assay: Test C postemergence; type: in vivo, Zea mays
Outline: as §1

barnyardgrass [1] = assay: Test A preemergence; type: in vivo, Echinochloa crus-galli; conditions: Echinochloa crus-galli, pre-emergence, 240 h, 0 to 100 scale (0 no effect, 100 complete control), read-out: Plant response rating, Barnyardgrass
Outline: (§2)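 Loam/sand soil mix; compound in non-phytotoxic solvent + surfactant. Pre: directed soil spray right after planting seed. Post: potted plants 2–10 cm, 1–2 leaf stage, sprayed with same formulation.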

waterhemp = assay: Test C postemergence; type: in vivo, Amaranthus rudis
Outline: as §1

blackgrass = assay: Test C postemergence; type: in vivo, Alopecurus myosuroides
Outline: as §1

pigweed [2] = assay: Test C postemergence; type: in vivo, Amaranthus retroflexus
Outline: as §1

velvetleaf = assay: Test C postemergence; type: in vivo, Abutilon theophrasti
Outline: as §1

johnsongrass = assay: Test C postemergence; type: in vivo, Sorghum halepense
Outline: as §1

pigweed [3] = assay: Test A postemergence; type: in vivo, Amaranthus retroflexus; conditions: Amaranthus retroflexus, post-emergence, 240 h, 0 to 100 scale (0 no effect, 100 complete control), approx. 10 d, read-out: Plant response rating, Pigweed
Outline: as §2

galium = assay: Test C postemergence; type: in vivo, Galium aparine
Outline: as §1

barnyardgrass [4] = assay: Test B flooded paddy test; type: in vivo, Echinochloa crus-galli; conditions: Echinochloa crus-galli, 360 h, 125 g ai/ha, applied to paddy water at 2-leaf stage, visual rating after 13 to 15 d, scale 0 (no effect) to 100 (complete control), read-out: Plant response rating, Barnyardgrass, Flood
Outline: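 Pots were flooded to 3 cm above the soil at treatment, and compounds were applied directly into the paddy water. That depth was held throughout. After 13 to 15 d in a greenhouse, plants were rated visually against untreated controls.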

ragweed = assay: Test C postemergence; type: in vivo, Ambrosia elatior
Outline: as §1

kochia = assay: Test C postemergence; type: in vivo, Kochia scoparia
Outline: as §1

barnyardgrass [5] = assay: Test C postemergence; type: in vivo, Echinochloa crus-galli
Outline: as §1

foxtail, giant [6] = assay: Test A postemergence; type: in vivo, Setaria faberii; conditions: Setaria faberi, post-emergence, 240 h, 0 to 100 scale (0 no effect, 100 complete control), approx. 10 d, read-out: Plant response rating, Foxtail, Giant
Outline: as §2

foxtail, giant [7] = assay: Test C postemergence; type: in vivo, Setaria faberii
Outline: as §1

crabgrass, large = assay: Test C postemergence; type: in vivo, Digitaria sanguinalis
Outline: as §1

wheat = assay: Test A postemergence; type: in vivo, Triticum aestivum; conditions: Triticum aestivum, post-emergence, 240 h, 0 to 100 scale (0 no effect, 100 complete control), approx. 10 d, read-out: Plant response rating, Wheat
Outline: as §2

oilseed rape = assay: Test C postemergence; type: in vivo, Brassica napus
Outline: as §1

CCOc1nc(-c2ccc(F)cc2)nn1Cc1ccnc(C(F)(F)F)c1 [Compound 8, 4-[[5-ethoxy-3-(4-fluorophenyl)-1H-1,2,4-triazol-1-yl]methyl]-2-(trifluoromethyl)pyridine]
10: Plant response rating (scale of 0 to 100 where 0 is no effect and 100 is complete control) (corn; 31 g ai/ha) | Plant response rating (scale of 0 to 100 where 0 is no effect and 100 is complete control) (barnyardgrass [5]; 31 g ai/ha)
5: Plant response rating (scale of 0 to 100 where 0 is no effect and 100 is complete control) (johnsongrass; 31 g ai/ha)
15: Plant response rating (scale of 0 to 100 where 0 is no effect and 100 is complete control) (corn; 62 g ai/ha)
70: Plant response rating (scale of 0 to 100 where 0 is no effect and 100 is complete control) (velvetleaf; 62 g ai/ha) | Plant response rating (scale of 0 to 100 where 0 is no effect and 100 is complete control) (ragweed; 125 g ai/ha) | Plant response rating (scale of 0 to 100 where 0 is no effect and 100 is complete control) (crabgrass, large; 125 g ai/ha)
30: Plant response rating (scale of 0 to 100 where 0 is no effect and 100 is complete control) (johnsongrass; 125 g ai/ha)
20: Plant response rating (scale of 0 to 100 where 0 is no effect and 100 is complete control) (barnyardgrass [5]; 62 g ai/ha) | Plant response rating (scale of 0 to 100 where 0 is no effect and 100 is complete control) (foxtail, giant [7]; 31 g ai/ha) | Plant response rating (scale of 0 to 100 where 0 is no effect and 100 is complete control) (crabgrass, large; 31 g ai/ha)
45: Plant response rating (scale of 0 to 100 where 0 is no effect and 100 is complete control) (ragweed; 31 g ai/ha)
95: Plant response rating (scale of 0 to 100 where 0 is no effect and 100 is complete control) (lambsquarters; 31 g ai/ha) | Plant response rating (scale of 0 to 100 where 0 is no effect and 100 is complete control) (lambsquarters; 125 g ai/ha) | Plant response rating (scale of 0 to 100 where 0 is no effect and 100 is complete control) (waterhemp; 31 g ai/ha) | Plant response rating (scale of 0 to 100 where 0 is no effect and 100 is complete control) (waterhemp; 125 g ai/ha) | Plant response rating (scale of 0 to 100 where 0 is no effect and 100 is complete control) (pigweed [2]; 31 g ai/ha) | Plant response rating (scale of 0 to 100 where 0 is no effect and 100 is complete control) (pigweed [2]; 62 g ai/ha) | Plant response rating (scale of 0 to 100 where 0 is no effect and 100 is complete control) (galium; 62 g ai/ha) | Plant response rating (scale of 0 to 100 where 0 is no effect and 100 is complete control) (galium; 125 g ai/ha) | Plant response rating (scale of 0 to 100 where 0 is no effect and 100 is complete control) (galium; 250 g ai/ha) | Plant response rating (scale of 0 to 100 where 0 is no effect and 100 is complete control) (kochia; 31 g ai/ha) | Plant response rating (scale of 0 to 100 where 0 is no effect and 100 is complete control) (kochia; 62 g ai/ha) | Plant response rating (scale of 0 to 100 where 0 is no effect and 100 is complete control) (kochia; 125 g ai/ha) | Plant response rating (scale of 0 to 100 where 0 is no effect and 100 is complete control) (kochia; 250 g ai/ha) | Plant response rating (scale of 0 to 100 where 0 is no effect and 100 is complete control) (oilseed rape; Oilsee Rape, 250 g ai/ha) | Plant response rating (scale of 0 to 100 where 0 is no effect and 100 is complete control) (oilseed rape; Oilseed Rape, 62 g ai/ha) | Plant response rating (scale of 0 to 100 where 0 is no effect and 100 is complete control) (oilseed rape; Oilseed Rape, 125 g ai/ha)
50%: pest or weed control at 125 g/ha (barnyardgrass [4])
55: Plant response rating (scale of 0 to 100 where 0 is no effect and 100 is complete control) (blackgrass; 125 g ai/ha) | Plant response rating (scale of 0 to 100 where 0 is no effect and 100 is complete control) (foxtail, giant [7]; 125 g ai/ha)
25: Plant response rating (scale of 0 to 100 where 0 is no effect and 100 is complete control) (corn; 125 g ai/ha)
80: Plant response rating (scale of 0 to 100 where 0 is no effect and 100 is complete control) (galium; 31 g ai/ha) | Plant response rating (scale of 0 to 100 where 0 is no effect and 100 is complete control) (ragweed; 250 g ai/ha)
50: Plant response rating (scale of 0 to 100 where 0 is no effect and 100 is complete control) (blackgrass; 31 g ai/ha) | Plant response rating (scale of 0 to 100 where 0 is no effect and 100 is complete control) (velvetleaf; 31 g ai/ha) | Plant response rating (scale of 0 to 100 where 0 is no effect and 100 is complete control) (ragweed; 62 g ai/ha)
85: Plant response rating (scale of 0 to 100 where 0 is no effect and 100 is complete control) (foxtail, giant [7]; 250 g ai/ha) | Plant response rating (scale of 0 to 100 where 0 is no effect and 100 is complete control) (crabgrass, large; 250 g ai/ha)
40: Plant response rating (scale of 0 to 100 where 0 is no effect and 100 is complete control) (corn; 250 g ai/ha) | Plant response rating (scale of 0 to 100 where 0 is no effect and 100 is complete control) (blackgrass; 62 g ai/ha) | Plant response rating (scale of 0 to 100 where 0 is no effect and 100 is complete control) (johnsongrass; 250 g ai/ha) | Plant response rating (scale of 0 to 100 where 0 is no effect and 100 is complete control) (barnyardgrass [5]; 125 g ai/ha) | Plant response rating (scale of 0 to 100 where 0 is no effect and 100 is complete control) (foxtail, giant [7]; 62 g ai/ha)
40%: plant injury at 125 g/ha (wheat; 125 g ai/ha)
90: Plant response rating (scale of 0 to 100 where 0 is no effect and 100 is complete control) (velvetleaf; 125 g ai/ha) | Plant response rating (scale of 0 to 100 where 0 is no effect and 100 is complete control) (velvetleaf; 250 g ai/ha) | Plant response rating (scale of 0 to 100 where 0 is no effect and 100 is complete control) (oilseed rape; Oilseed Rape, 31 g ai/ha)
35: Plant response rating (scale of 0 to 100 where 0 is no effect and 100 is complete control) (johnsongrass; 62 g ai/ha) | Plant response rating (scale of 0 to 100 where 0 is no effect and 100 is complete control) (crabgrass, large; 62 g ai/ha)
98: Plant response rating (scale of 0 to 100 where 0 is no effect and 100 is complete control) (lambsquarters; 62 g ai/ha) | Plant response rating (scale of 0 to 100 where 0 is no effect and 100 is complete control) (lambsquarters; 250 g ai/ha) | Plant response rating (scale of 0 to 100 where 0 is no effect and 100 is complete control) (waterhemp; 62 g ai/ha) | Plant response rating (scale of 0 to 100 where 0 is no effect and 100 is complete control) (waterhemp; 250 g ai/ha) | Plant response rating (scale of 0 to 100 where 0 is no effect and 100 is complete control) (pigweed [2]; 125 g ai/ha) | Plant response rating (scale of 0 to 100 where 0 is no effect and 100 is complete control) (pigweed [2]; 250 g ai/ha)
100%: pest or weed control at 125 g/ha (barnyardgrass [1]; 125 g ai/ha) | pest or weed control at 500 g/ha (barnyardgrass [1]; 500 g ai/ha, approx. 10 d) | pest or weed control at 125 g/ha (pigweed [3]; 125 g ai/ha) | pest or weed control at 500 g/ha (pigweed [3]; 500 g ai/ha) | pest or weed control at 125 g/ha (foxtail, giant [6]; 125 g ai/ha) | pest or weed control at 500 g/ha (foxtail, giant [6]; 500 g ai/ha) | plant injury at 500 g/ha (wheat; 500 g ai/ha)
75: Plant response rating (scale of 0 to 100 where 0 is no effect and 100 is complete control) (blackgrass; 250 g ai/ha) | Plant response rating (scale of 0 to 100 where 0 is no effect and 100 is complete control) (barnyardgrass [5]; 250 g ai/ha)
